Experimental data reported in PubChem BioAssay AID220 (DTP/NCI, 2004).
Several values for one entry are separate records, joined by “and”; a condition that tells them apart may be missing. Equal entries are not always repeated. Results filed as inconclusive are left out.

Test system: CD8F1 mice, subcutaneous mammary adenocarcinoma, T/C%
Experiment: NCI In Vivo Anticancer Drug Screen. Data for tumor model Mammary Adenocarcinoma CD8F1 (subcutaneous) in CD8F1
Details: higher = larger tumour
Method in brief: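 Tumor-bearing mice, transplantable model; readout survival or tumor size; value = treated (T) / vehicle control (C).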

[1] = endpoint: median tumor weight change, dose: 62.5 mg/kg/injection, schedule: Q01DX001 (ip), vehicle: saline
[2] = endpoint: median tumor weight change, dose: 250.0 mg/kg/injection, schedule: Q01DX001 (ip), vehicle: saline
[3] = endpoint: median tumor weight change, dose: 125.0 mg/kg/injection, schedule: Q01DX001 (ip), vehicle: saline with Tween-80
[4] = endpoint: median tumor weight change, dose: 500.0 mg/kg/injection, schedule: Q01DX001 (ip), vehicle: saline with Tween-80

C1CNCOC1
T/C (endpoint: median tumor weight change, dose: 50.0 mg/kg/injection, schedule: Q01DX001 (ip), vehicle: saline): 74 % of control | T/C [1]: 48 % of control | T/C (endpoint: median tumor weight change, dose: 100.0 mg/kg/injection, schedule: Q01DX001 (ip), vehicle: saline): 82 % of control | T/C (endpoint: median tumor weight change, dose: 200.0 mg/kg/injection, schedule: Q01DX001 (ip), vehicle: saline): 90 % of control | T/C [2]: 96 % of control

CCOC(=O)C1(c2ccccc2)C(=O)Oc2ccccc21 (stereo not drawn)
T/C (endpoint: median tumor weight (est.), dose: 12.5 mg/kg/injection, schedule: Q07DX005 (ip), vehicle: saline with Tween-80): 84 % of control | T/C (endpoint: median tumor weight (est.), dose: 25.0 mg/kg/injection, schedule: Q07DX005 (ip), vehicle: saline with Tween-80): 69 % of control | T/C (endpoint: median tumor weight (est.), dose: 50.0 mg/kg/injection, schedule: Q07DX005 (ip), vehicle: saline with Tween-80): 97 % of control | T/C (endpoint: median tumor weight (est.), dose: 100.0 mg/kg/injection, schedule: Q07DX005 (ip), vehicle: saline with Tween-80): 119 % of control | T/C (endpoint: median tumor weight (est.), dose: 200.0 mg/kg/injection, schedule: Q07DX005 (ip), vehicle: saline with Tween-80): 113 % of control | T/C (endpoint: median tumor weight (est.), dose: 400.0 mg/kg/injection, schedule: Q07DX005 (ip), vehicle: saline with Tween-80): 70 % of control | T/C [3]: 82 % of control | T/C [4]: 71 % of control | T/C (endpoint: median tumor weight change, dose: 1000.0 mg/kg/injection, schedule: Q01DX001 (ip), vehicle: saline with Tween-80): 61 % of control | T/C (endpoint: median tumor weight change, dose: 2000.0 mg/kg/injection, schedule: Q01DX001 (ip), vehicle: saline with Tween-80): 100 % of control

Nc1c(Cl)c(Cl)nc(C(=O)O)c1Cl
T/C (endpoint: mean tumor weight, dose: 6.25 mg/kg/injection, schedule: Q01DX015 (ip), vehicle: saline): 114 % of control | T/C (endpoint: mean tumor weight, dose: 6.25 mg/kg/injection, schedule: Q07DX007 (ip), vehicle: saline): 94 % of control | T/C (endpoint: mean tumor weight, dose: 12.5 mg/kg/injection, schedule: Q01DX015 (ip), vehicle: saline): 102 % of control | T/C (endpoint: mean tumor weight, dose: 12.5 mg/kg/injection, schedule: Q07DX007 (ip), vehicle: saline): 102 % of control | T/C (endpoint: mean tumor weight, dose: 25.0 mg/kg/injection, schedule: Q01DX015 (ip), vehicle: saline): 124 % of control | T/C (endpoint: mean tumor weight, dose: 25.0 mg/kg/injection, schedule: Q07DX007 (ip), vehicle: saline): 83 % of control | T/C (endpoint: mean tumor weight, dose: 200.0 mg/kg/injection, schedule: Q07DX006 (ip), vehicle: saline): 64 % of control | T/C (endpoint: mean tumor weight, dose: 300.0 mg/kg/injection, schedule: Q07DX006 (ip), vehicle: saline): 168 % of control

C[CH2][Ge]([CH2]C)[CH2]C.C[CH2][Ge]([CH2]C)[CH2]C.C[CH2][Ge]([CH2]C)[O][Ge]([CH2]C)[CH2]C
T/C [3]: 81 % of control | T/C [4]: 114 % of control

O=C1C=C[C@H](O)[C@@]2(CO)O[C@@H]12
T/C (endpoint: median tumor weight change, dose: 3.12 mg/kg/injection, schedule: Q01DX001 (ip), vehicle: saline with Tween-80): 65 % of control | T/C (endpoint: median tumor weight change, dose: 6.25 mg/kg/injection, schedule: Q01DX001 (ip), vehicle: saline with Tween-80): 61 % of control | T/C (endpoint: median tumor weight change, dose: 12.5 mg/kg/injection, schedule: Q01DX001 (ip), vehicle: saline with Tween-80): 90 % of control

O=C1C(NCCO)=C(N2CC2)C(=O)C(NCCO)=C1N1CC1
T/C (endpoint: median tumor weight change, dose: 0.62 mg/kg/injection, schedule: Q01DX001 (ip), vehicle: saline): 73 % of control | T/C (endpoint: median tumor weight change, dose: 0.63 mg/kg/injection, schedule: Q01DX001 (ip), vehicle: saline): 36 % of control | T/C (endpoint: median tumor weight change, dose: 5.0 mg/kg/injection, schedule: Q01DX001 (ip), vehicle: saline): 25 % of control

C=C1C(C)C2C(Cc3ccccc3)NC(=O)C23C(OC(C)=O)/C=C/C(C)(O)CC(C)C/C=C/C3C1O (stereo not drawn)
T/C (endpoint: median tumor weight change, dose: 7.5 mg/kg/injection, schedule: Q01DX001 (ip), vehicle: Klucel (hydroxypropylcellulose) (HPC)): 61 % of control and 66 % of control

COc1cc2c(c(OC)c1O)-c1ccc(OC)c(=O)cc1[C@@H](NC(=O)C(F)(F)F)CC2
T/C (endpoint: median tumor weight change, dose: 3.12 mg/kg/injection, schedule: Q01DX001 (ip), vehicle: Klucel (hydroxypropylcellulose) (HPC)): 100 % of control | T/C (endpoint: median tumor weight change, dose: 6.25 mg/kg/injection, schedule: Q01DX001 (ip), vehicle: Klucel (hydroxypropylcellulose) (HPC)): 203 % of control | T/C (endpoint: median tumor weight change, dose: 12.5 mg/kg/injection, schedule: Q01DX001 (ip), vehicle: Klucel (hydroxypropylcellulose) (HPC)): 74 % of control | T/C (endpoint: median tumor weight change, dose: 25.0 mg/kg/injection, schedule: Q01DX001 (ip), vehicle: Klucel (hydroxypropylcellulose) (HPC)): 168 % of control | T/C (endpoint: median tumor weight change, dose: 50.0 mg/kg/injection, schedule: Q01DX001 (ip), vehicle: Klucel (hydroxypropylcellulose) (HPC)): 21 % of control

CC(=O)OCC1OC(OC(C)=O)C(NC(=O)N(CCCl)N=O)C(OC(C)=O)C1OC(C)=O (stereo not drawn)
T/C (endpoint: median tumor weight (est.), dose: 1.5 mg/kg/injection, schedule: Q07DX005 (ip), vehicle: Klucel (hydroxypropylcellulose) (HPC)): 61 % of control | T/C (endpoint: median tumor weight (est.), dose: 3.0 mg/kg/injection, schedule: Q07DX005 (ip), vehicle: Klucel (hydroxypropylcellulose) (HPC)): 41 % of control and 63 % of control and 66 % of control

c1csc(C[N+]23CN4CN(CN(C4)C2)C3)c1
T/C [2]: 80 % of control

CN(C)C(=O)c1cccc(COc2ccc(N3C(N)=NC(N)=NC3(C)C)cc2Cl)c1
T/C (endpoint: median tumor weight (est.), dose: 8.0 mg/kg/injection, schedule: Q07DX005 (ip), vehicle: suspension in saline): 154 % of control | T/C (endpoint: median tumor weight (est.), dose: 16.0 mg/kg/injection, schedule: Q07DX005 (ip), vehicle: suspension in saline): 57 % of control | T/C (endpoint: median tumor weight (est.), dose: 32.0 mg/kg/injection, schedule: Q07DX005 (ip), vehicle: suspension in saline): 64 % of control

O=C([CH-]C(=O)C(F)(F)F)c1ccccc1.O=C([CH-]C(=O)C(F)(F)F)c1ccccc1.O=C([CH-]C(=O)C(F)(F)F)c1ccccc1.O=C([CH-]C(=O)C(F)(F)F)c1ccccc1.[Eu+3].c1ccncc1
T/C (endpoint: median tumor weight (est.), dose: 12.5 mg/kg/injection, schedule: Q07DX005 (ip), vehicle: Klucel (hydroxypropylcellulose) (HPC)): 109 % of control | T/C (endpoint: median tumor weight (est.), dose: 25.0 mg/kg/injection, schedule: Q07DX005 (ip), vehicle: Klucel (hydroxypropylcellulose) (HPC)): 109 % of control | T/C (endpoint: median tumor weight (est.), dose: 50.0 mg/kg/injection, schedule: Q07DX005 (ip), vehicle: Klucel (hydroxypropylcellulose) (HPC)): 103 % of control | T/C (endpoint: median tumor weight (est.), dose: 100.0 mg/kg/injection, schedule: Q07DX005 (ip), vehicle: Klucel (hydroxypropylcellulose) (HPC)): 95 % of control | T/C (endpoint: median tumor weight (est.), dose: 400.0 mg/kg/injection, schedule: Q07DX005 (ip), vehicle: Klucel (hydroxypropylcellulose) (HPC)): 110 % of control

O=C1C=C2C(=CCOC2O)O1 (stereo not drawn)
T/C (endpoint: median tumor weight (est.), dose: 0.5 mg/kg/injection, schedule: Q07DX005 (ip), vehicle: Klucel (hydroxypropylcellulose) (HPC)): 36 % of control | T/C (endpoint: median tumor weight (est.), dose: 1.0 mg/kg/injection, schedule: Q07DX005 (ip), vehicle: Klucel (hydroxypropylcellulose) (HPC)): 25 % of control | T/C (endpoint: median tumor weight (est.), dose: 1.5 mg/kg/injection, schedule: Q07DX005 (ip), vehicle: saline): 153 % of control | T/C (endpoint: median tumor weight (est.), dose: 2.0 mg/kg/injection, schedule: Q07DX005 (ip), vehicle: Klucel (hydroxypropylcellulose) (HPC)): 25 % of control | T/C (endpoint: median tumor weight (est.), dose: 3.0 mg/kg/injection, schedule: Q07DX005 (ip), vehicle: saline): 87 % of control | T/C (endpoint: median tumor weight (est.), dose: 4.0 mg/kg/injection, schedule: Q07DX005 (ip), vehicle: Klucel (hydroxypropylcellulose) (HPC)): 50 % of control | T/C (endpoint: median tumor weight change, dose: 5.0 mg/kg/injection, schedule: Q01DX001 (ip), vehicle: Klucel (hydroxypropylcellulose) (HPC)): 98 % of control

O=c1[nH]cccc1O
T/C [3]: 60 % of control | T/C (endpoint: median tumor weight change, dose: 250.0 mg/kg/injection, schedule: Q01DX001 (ip), vehicle: saline with Tween-80): 35 % of control

CCN(CC)CCOCCO
T/C [1]: 151 % of control | T/C (endpoint: median tumor weight change, dose: 125.0 mg/kg/injection, schedule: Q01DX001 (ip), vehicle: saline): 172 % of control | T/C [2]: 65 % of control

Cc1c2ccc3ccccc3c2c[n+]2ccccc12
T/C (endpoint: median tumor weight (est.), dose: 2.5 mg/kg/injection, schedule: Q07DX005 (ip), vehicle: Klucel (hydroxypropylcellulose) (HPC)): 84 % of control | T/C (endpoint: median tumor weight (est.), dose: 5.0 mg/kg/injection, schedule: Q07DX005 (ip), vehicle: Klucel (hydroxypropylcellulose) (HPC)): 86 % of control | T/C (endpoint: median tumor weight (est.), dose: 10.0 mg/kg/injection, schedule: Q07DX005 (ip), vehicle: Klucel (hydroxypropylcellulose) (HPC)): 83 % of control | T/C (endpoint: median tumor weight (est.), dose: 20.0 mg/kg/injection, schedule: Q07DX005 (ip), vehicle: Klucel (hydroxypropylcellulose) (HPC)): 57 % of control

ClC(Cl)=C(Cl)Cl
T/C (endpoint: median tumor weight change, dose: 62.5 mg/kg/injection, schedule: Q01DX001 (ip), vehicle: other): 157 % of control | T/C (endpoint: median tumor weight change, dose: 125.0 mg/kg/injection, schedule: Q01DX001 (ip), vehicle: other): 191 % of control

Cc1ccccc1N(CC1CO1)CC1CO1 (stereo not drawn)
T/C (endpoint: median tumor weight (est.), dose: 50.0 mg/kg/injection, schedule: Q07DX005 (ip), vehicle: saline): 74 % of control | T/C (endpoint: median tumor weight (est.), dose: 100.0 mg/kg/injection, schedule: Q07DX005 (ip), vehicle: saline): 79 % of control | T/C (endpoint: median tumor weight (est.), dose: 200.0 mg/kg/injection, schedule: Q07DX005 (ip), vehicle: saline): 105 % of control | T/C (endpoint: median tumor weight (est.), dose: 400.0 mg/kg/injection, schedule: Q07DX005 (ip), vehicle: saline): 63 % of control

COc1ccc(C(=O)C(CN(C)C)CN(C)C)cc1
T/C (endpoint: median tumor weight change, dose: 7.81 mg/kg/injection, schedule: Q01DX001 (ip), vehicle: saline): 103 % of control | T/C (endpoint: median tumor weight change, dose: 15.62 mg/kg/injection, schedule: Q01DX001 (ip), vehicle: saline): 88 % of control | T/C (endpoint: median tumor weight change, dose: 31.25 mg/kg/injection, schedule: Q01DX001 (ip), vehicle: saline): 84 % of control
